Laboratory results: ChEMBL document CHEMBL5725762, “Tetracyclic pyridone compounds as antivirals” (2018)

Assay: HBSAg ELISA assay: HepG2-Clone42 cells were seeded in into black clear-bottom 96-well plates at a concentration of 6.0×10^4 cells/well. 24 hours post-seeding, the cells were treated with 200 μl/well of media containing five-fold serial dilutions of compounds in DMSO. DMSO alone was used as the no drug control. The final DMSO concentration in all wells was 0.5%. The HBsAg ELISA kit (Alpha Diagnostic International, San Antonio, Tex., USE, Catalog #4110) was used to determine the level (semi-quantitative) of secreted HBV sAg.
Molecule `COCCCOc1cc2c(cc1OC)-c1c(F)c(=O)c(C(=O)O)cn1C1[C@@H]2OCC1(C)C` (stereo partly drawn) has an EC50 of 0.8 nM. In the case of `COCCCOc1cc2c(cc1OC)-c1cc(=O)c(C(=O)O)cn1C1[C@@H]2COC1(C)C` (stereo partly drawn), the EC50 is reported as 1 nM. `COCCCOc1cc2c(cc1Cl)-c1cc(=O)c(C(=O)O)cn1[C@H]1[C@@H]2CCC1(C)C` showed an EC50 of 0.1 nM.
